In data set [1] the test system is Sprague-Dawley rats. Kind of data set: Rat forced swim test 24 hours after administration. The class given is in vivo. As to conditions: 10 mg/kg, i.p., 24 hours before test, p<0.05. How it is done:
This study aimed to evaluate the duration of the antidepressant-like effects of Form II of Compound (I) using the forced swim test in male, Sprague-Dawley rats. Clinically effective antidepressant compounds reduce immobility time and increase swimming in rodents subjected to this test. Rats received Compound (I) (10 mg/kg, p.o.) or ketamine (10 mg/kg, i.p.) and 24 hours later were subjected to testing. […] The data represent mean±SEM.

Data set [2] concerns systemic blood pressure and heart rate. The data set is described as follows: Blood pressure profile in chronically instrumented (telemetered) rats. The class given is in vivo, rat. On the procedure:
A single oral gavage dose was administered (volume: 5 mL/kg). […] Following the completion of the Latin square, two additional dose concentrations were evaluated (0.6 and 10 mg/kg, n=3 per group).
All IV doses were administered in manually restrained rats via tail vena-puncture. It should be noted that vehicle controls were also administered.
A 24-hour recording was performed prior to dosing (vehicle alone) and after each oral dose.

Data set [3] is described as follows: Repeated once-daily oral dosing with food (Days 1-7) in healthy subjects, PK and PD. In kind it is in vivo, human. Particulars: oral doses up to 20 mg. On the procedure: A randomized, double-blind, placebo-controlled, parallel-dose group in-patient study is conducted to investigate the pharmacodynamic (PD) effects of crystalline Form II of Compound (I) in healthy subjects.
The study is designed as a three-part, sequential study. The sequential nature of the study ensures that a range of doses are investigated first in a young, healthy population (Part 1) before proceeding to higher doses in the healthy population and the comparator populations (intermediate age and elderly) (Parts 2 and 3). For the purposes of this study, “young” refers to a subject who is 18 to 45 years of age, “intermediate age” refers to a subject who is 46 to 64 years of age, and “elderly” refers to a subject who is 65 years of age or older.
After a screening period of up to 21 days (Days −23 to −3), 16 healthy, young male and female subjects are randomly assigned to a dose group as shown in Table 9.
Each parallel dose group is balanced for gender (approximately equal number of males and females). The randomized subjects are domiciled from Day −1 through Day 8. On Day −1, the subjects receive placebo tablets in the fed state and undergo ambulatory blood pressure monitoring (ABPM) and safety assessments to establish time-matched baselines. On Days 1-7, the subjects receive the study drug in the fed state and undergo safety, pharmacokinetic (PK) and pharmacodynamics (PD) assessments. On Days 8-11, follow-up PK and safety assessments are performed.
Safety assessments include Clinician-Administered Dissociative States Scale (CADSS), Columbia-Suicide Severity Rating Scale (C-SSRS), concomitant medication, adverse event (AE) and vital sign assessments. In PK assessments, blood samples are taken and analyzed to determine PK parameters such as Cmax, Tmax, AUC0-24, and t1/2. PD assessments include ABPM, plasma brain-derived neurotrophic factor (BDNF) measurements, and Profile of Mood States (POMS) assessments.
After a screening period of up to 21 days (Days −23 to −3), 16 subjects (8 healthy, young male and female subjects, and 8 healthy, intermediate age male and female subjects) are randomly assigned to a dose group as shown in Table 10.
After a screening period of up to 21 days (Days −23 to −3), 16 subjects (8 healthy, young male and female subjects, and 8 healthy, elderly male and female subjects) are randomly assigned to a dose group as shown in Table 11.

For data set [4] the following is noted: patients with TRMDD; Ibrahim et al. 2012; cited from earlier work.
The test system of data set [5] is Sprague-Dawley rats. Kind of data set: Acute depression model, forced swim test. The class given is in vivo, rat. Particulars: 20 mg/kg vs vehicle. On the procedure: Young, adult, male Sprague-Dawley rats were randomly assigned across the treatment groups and were administered vehicle (0.5% MC/0.02% SLS), the reference compound desipramine (20 mg/kg; a tricyclic antidepressant; Sigma, Lot #078K1326) dissolved in sterile water, or crystalline Form II of Compound (I) (0.1, 0.3, 1, 3, 10, and 30 mg/kg) suspended in 0.5% MC/0.02% SLS, twice on Day 1 (after habituation; ˜24 h prior to test, and prior to dark cycle) and once on Day 2 (30 min pre-test for desipramine and 45 min pre-test for Form II and vehicle).
Each Forced Swim chamber was constructed of clear acrylic (height, 40 cm; diameter, 20.3 cm). Rats were subjected to a pre-dose swim test of one 15-min session in cylinders containing water at 23° C.±1° C., followed approximately 24 h later by the experimental 5-min session. The water level was 16 cm deep during habituation and 30 cm deep during the test. Immobility, climbing, and swimming behaviors were recorded every 5 s for a total of 60 counts per subject. When an animal was unable to maintain a posture with its nose above water, it was immediately removed from the water and eliminated from the study. Blood was collected at the completion of swim test procedures and plasma was analyzed for Form II concentrations.

Data set [6] in a line: Polymorph stability (slurry and heating, XRPD). Particulars: heating to 115° C. The class given is physicochemical. How it is done: Crystalline Form II of Compound (I) was characterized using X-ray powder diffraction (XRPD) (FIG. 1A). The XRPD pattern corresponds to an anhydrous form denoted as Form II, which is highly crystalline. In addition to Form II, Compound (I) can exist as another anhydrous polymorph, denoted as Form I. The XRPD patterns of these phases are shown in FIG. 1B. A slurry experiment was performed at room temperature by adding approximately equal proportions of the two anhydrous phases to methyl-tert-butyl ether.

Where [7] appears, read: 1 mg/kg IV bolus, blocker alone.

With `CNC1(c2ccccc2Cl)CCCCC1=O` (stereo not drawn) [ketamine, reference compound], in data set [1], the immobility entry is “reduced immobility” and the swim time result is “increased swim time significantly”.

For the compound `Cc1ccc(COC(=O)N2CC[C@H](CNc3ncccn3)[C@H](F)C2)cc1` [Compound (I), 4-methylbenzyl (3S, 4R)-3-fluoro-4-[(pyrimidin-2-ylamino)methyl] piperidine-1-carboxylate], the heart rate result in data set [2] (0.3 and 0.6 mg/kg oral) is “modestly increased heart rate”. The heart rate result in data set [2] (between 1 and 10 mg/kg oral) was “increased HR dose proportionally”. For the same compound, the “magnitude of change in hemodynamics compared with MK-801 (0.2 mg/kg IV)” value in data set [2] (oral 0.3-10 mg/kg) was “significantly less than that of MK-801”. Besides, in data set [2] (oral, dose-dependent between 0.3-1 mg/kg, plateaued at 1-10 mg/kg), the arterial blood pressure entry was “increased arterial blood pressure transiently”. In addition, in data set [3], the “heart rates in human studies” value is recorded as “have not been observed to increase to any significant degree”; the “primary hemodynamic observation in human studies” value was “transient increase in systolic and diastolic blood pressure”. The “HAM-D17 and Beck Depression Inventory (BDI)” value in data set [4] is “showed antidepressant effects”.

In data set [2] (setting [7]), `CC(C)NCC(O)COc1ccc(CC(N)=O)cc1` (stereo not drawn) [atenolol, reference compound] yielded an HR change of −87±11 bpm and an MAP change of −3.3±3.1 mmHg.

`CNCCCN1c2ccccc2CCc2ccccc21` [Desipramine, reference compound]: the swimming behavior entry in data set [5] is on record as “no change”. For the same compound, in data set [5] (P<0.001), the immobility result is “significantly decreased”. The climbing behavior entry in data set [5] (P<0.01) is “significantly increased”.

As for `Cc1ccc(COC(=O)N2CC[C@H](CNc3ncccn3)[C@H](F)C2)cc1` [Form I, 4-methylbenzyl (3S, 4R)-3-fluoro-4-[(pyrimidin-2-ylamino)methyl] piperidine-1-carboxylate], in data set [6], the “phase change on heating (XRPD of recovered solids)” value was “phase conversion to Form II”.

(Values after patent publication US12410153B2, “Compounds, compositions and methods” (Avalo Therapeutics, Inc., priority 2014, dated 2025).)
